Molecules are shown by their SMILES.

Consider one compound from US20110152223A1, “THERAPEUTIC AGENT FOR ANCA-RELATED VASCULITIS” (priority 2008, published 2011).

Common to all, as to format: in vivo
In test [1] the test system is PD-1. As to the kind of experiment: mRNA expression level of PD-1 in the kidneys of SCG/Kj mice (quantitative real-time PCR). The following applies: 5% EPA-E diet from seven weeks old until completed 11th week of age. On the procedure: (§1) SCG/Kj mice (seven weeks old) were divided into three groups comprising 6 or 7 animals each, and fed under the same conditions as Example 1 until they completed their 11th week of age. The mRNA expression levels of PD-1, PD-L1, PD-L2, Foxp3, and CTLA4 in the kidneys, lungs and spleens of the mice were evaluated.
(§2) A frozen kidney was homogenized in a TRIzol® reagent (Invitrogen, Carlsbad, Calif.). Total RNA was prepared from the homogenate, and purified using PureLink Micro-to-Midi Total RNA Purification System (Invitrogen). SuperScript™ III first-strand synthesis system (Invitrogen) was used to prepare cDNA from the purified total RNA, and quantitative real-time PCR was conducted with ABI Prism® 7000 (Applied Biosystems, Foster City, Calif.). For primers and probes for PCR, TaqMan® gene expression assays (Applied Biosystems) were used.
(In general: Quantitative PCR measures a nucleic acid by following its amplification.)

Test [2] concerns CTLA4. As to the kind of experiment: mRNA expression level of CTLA4 in the kidneys of SCG/Kj mice (quantitative real-time PCR). The following applies: 5% EPA-E diet from seven weeks old until completed 11th week of age. On the procedure: as §1, §2
Test [3] relates to SCG/Kj mice. Nature of the test: Action of EPA on the survival rate of SCG/Kj mice as an ANCA model. The conditions noted are these: SCG/Kj mice fed 5% diet in a free-feeding state from seven weeks old. An excerpt: SCG/Kj mice (seven weeks old) as a spontaneous ANCA vasculitis/nephritis model (Nippon Kayaku Co., Ltd.) were divided into three groups comprising 6 or 7 animals each, and fed on (1) fish meal-free feed F1 (Funakoshi Co., Ltd.) (control group), (2) 5% corn oil diet (manufactured by Sigma Corporation) (corn oil group), or (3) 5% EPA-E diet (diet F1 with 5% EPA-E added thereto) (EPA group) in a free-feeding state so as to observe the survival rate.

Test [4] deals with PD-L1. As to the kind of experiment: mRNA expression level of PD-L1 in the kidneys of SCG/Kj mice (quantitative real-time PCR). The conditions noted are these: 5% EPA-E diet from seven weeks old until completed 11th week of age. On the procedure:
as §1, §2

Test [5] deals with MPO-ANCA. As to the kind of experiment: MPO-ANCA in the serum of SCG/Kj mice by ELISA (ANCA production). The conditions noted are these: 5% EPA-E diet from seven weeks old until completed 11th week of age, absorbance at 405 nm. On the procedure: SCG/Kj mice (seven weeks old) were divided into three groups comprising 6 or 7 animals each, and fed under the same conditions as Example 1 until they completed their 11th week of age. Groups of B6 mice (two animals) and of SCG/Kj mice (15 weeks old; three animals) were further provided, and the five groups were subjected to the absorbance measurement for MPO-ANCA in the serum by an ELISA technique.
The MPO-ANCA titer was measured by following a method having already been reported (Ishida-Okawara, A., Ito-Ihara, T., Muso, E. et al., Neutrophil contribution to the crescentic glomerulonephritis in SCG/Kj mice, Nephrol. Dial. Transplant. 2004; 19: 1708-1715). To put it briefly: Recombinant mouse MPO was coated onto an ELISA plate (Toyoshima Co., Tokyo, Japan) at 4° C. overnight. The plate was blocked with 1% bovine serum albumin (BSA) (Sigma), then incubated at room temperature for 1.5 hours in the presence of mouse serum (50-fold dilution).
Bound MPO-ANCA was detected after an incubation for two hours in the presence of an alkaline phosphatase-labeled anti-mouse IgG antibody (Cappel). Subsequently, the secondary antibody as bound was quantified by measuring the absorbance at 405 nm after an incubation in the presence of 1 mg/ml of p-nitrophenyl phosphate (Sigma).
Background: ELISA stands for enzyme-linked immunosorbent assay.

For test [6], the system named is PD-L2. As to the kind of experiment: mRNA expression level of PD-L2 in the kidneys of SCG/Kj mice (quantitative real-time PCR). The following applies: 5% EPA-E diet from seven weeks old until completed 11th week of age. On the procedure:
as §1, §2

The subject of test [7] is Foxp3. As to the kind of experiment: mRNA expression level of Foxp3 in the kidneys of SCG/Kj mice (quantitative real-time PCR). The conditions noted are these: 5% EPA-E diet from seven weeks old until completed 11th week of age. On the procedure: as §1, §2

Turning to `CC/C=C\C/C=C\C/C=C\C/C=C\C/C=C\CCCC(=O)OCC` [EPA-E, ethyl icosapentate ester], in test [1], the “PD-1 mRNA expression level in the kidney as compared with the control group” value is “likely to be increased”. Moreover, the “CTLA4 mRNA expression level in the kidney as compared with the control group” value in test [2] was “likely to be increased”. Further, in test [3], the “age at which the survival rate began to decrease” value is on record as “about 15 weeks old” and the survival-prolonging effect entry is “has a survival-prolonging effect”. Further, in test [4], the “PD-L1 mRNA expression level in the kidney as compared with the control group” value is given as “likely to be increased”. Besides, in test [5], the “ANCA levels relative to normal mice (B6)” value is “comparable to those of the normal mice (B6)”; the “ANCA production as compared with the control group and the corn oil group” value is listed as “evidently suppressed”. In addition, the “PD-L2 mRNA expression level in the kidney as compared with the control group” value in test [6] was “likely to be increased”. Further, the “Foxp3 mRNA expression level in the kidney as compared with the control group” value in test [7] is listed as “significantly increased”.
